This note sets out measurements from patent US20110189686A1, “SCREENING FOR MODULATORS OF CYP2B15 AND/OR GPD1 FOR THE TREATMENT OF ACNE, OF SEBORRHOEIC DERMATITIS OR OF HYPERSEBORRHOEA” (Galderma Research & Development, priority 2008, published 2011).

For data set [1], the system named is CYP2B15. Nature of the data set: Real-time PCR of CYP2B15 expression in rat sebaceous gland (epidermal split) after topical PPARgamma agonist, kinetics. Type of data set: in vivo. Particulars: topical 1% in acetone, female FUZZY rats, standardized to 18S, versus carrier group. The source says: • Strain: Ico:HSd:FUZZY-fz • Gender: female • Age: 10 weeks Number per batch: 40 (8 animals per group) Treatment: Route of administration: topical • Compound/batch: PPARgamma agonists: • A: 5-{4-[2-(methylpyridin-2-ylamino)ethoxy]benzyl}thiazolidine-2,4-dione • B: 2-(methoxyethoxymethoxy)naphthalene-2-carboxylic acid [4′-(2,4-dioxothiazolidin-5-ylmethyl)biphenyl-3-ylmethyl]methylamide or rosiglitazone • C: (S)-2-ethoxy-3-{4-[6-(3-heptyl-1-methylureido)pyridin-2-yl]phenyl}propionic acid • Doses: 1% • Carrier: acetone (001) • Duration: 96 hours Method of evaluation: The animals are weighed at the beginning and at the end of the study. Skin biopsies are taken (6 samples of skin excised per rat) in order to analyze the expression of the genes (RNA extraction, reverse transcriptase and real-time PCR). The samples are stored at 4° C. overnight before incubation in 1 M sodium bromide (NaBr) for 2 hours at 37° C. After incubation, the samples are separated into epidermis or dermis. The epidermal samples are stored at […] Under these conditions, the sebaceous glands are in the epidermal split. PCRs are carried out, beginning with the cDNAs originating from the epidermal splits containing sebaceous glands from control rats or rats treated with a PPARγ agonist: the mRNA is extracted using a column and quantified. The quality of the mRNAs is measured and is represented by the 18S/28S ratio. The results are standardized with respect to 18S, expressed as relative induction versus untreated animals (carrier group). The statistical analysis is obtained using internal software based on a modified Monte Carlo statistical analysis.
On the technique in general: In qPCR the cycle at which signal appears reflects the starting amount.

The subject of data set [2] is GPD1. Nature of the data set: Real-time PCR of GPD1 expression in rat sebaceous gland (epidermal split) after topical PPARgamma agonist, kinetics. The data set is classed as in vivo. Particulars: topical 1% in acetone, female FUZZY rats, standardized to 18S, versus carrier group. As for the experimental part:
Skin biopsies are taken (6 samples of skin excised per rat) in order to analyze the expression of the genes (RNA extraction, reverse transcriptase and real-time PCR). The samples are stored at 4° C. overnight before incubation in 1 M sodium bromide (NaBr) for 2 hours at 37° C. After incubation, the samples are separated into epidermis or dermis. The epidermal samples are stored at 20° C. Under these conditions, the sebaceous glands are in the epidermal split. PCRs are carried out, beginning with the cDNAs originating from the epidermal splits containing sebaceous glands from control rats or rats treated with a PPARγ agonist: the mRNA is extracted using a column and quantified. The quality of the mRNAs is measured and is represented by the 18S/28S ratio. The results are standardized with respect to 18S, expressed as relative induction versus untreated animals (carrier group). The statistical analysis is obtained using internal software based on a modified Monte Carlo statistical analysis.

In data set [3] the test system is GPD1. Nature of the data set: Affymetrix transcriptome measurement of GPD1 expression in Fuzzy rat epidermal split after 8 days of topical treatment. The data set is classed as in vivo. Particulars: GPD1 mRNA (1371363_at), female FUZZY rats, topical 1%, once a day for 8 days, control condition 66.
The subject of data set [4] is CYP2B15. Nature of the data set: Affymetrix transcriptome measurement of CYP2B15 expression in Fuzzy rat epidermal split after 8 days of topical treatment. Particulars: topical 1%. As for the experimental part:
The studies are carried out in female Fuzzy rats (Hsd: FUZZY-fz) 10 weeks old at the beginning of the study. The animals are treated at a dose of 1% (PPARg agonist Rosiglitazone in solution in acetone) once a day for 8 days. Two hours after the final treatment, the animals are sacrificed by euthanasia and the skin on the back is removed. After incubation in dispase, the epidermis carrying the sebaceous glands is detached from the dermis (epidermal split). After grinding of the samples, the mRNA is prepared using Qiagen columns, in accordance with the suppliers' instructions. The material thus prepared is subjected to large-scale transcriptome analysis on an Affymetrix platform. The data are subsequently standardized and, after statistical analysis, the results produced are expressed in arbitrary expression units (see below) accompanied, for each piece of data, by a statistical value for presence of the transcript (presence=1; absence=0).

Take `CN(CCOc1ccc(CC2SC(=O)NC2=O)cc1)c1ccccn1` (centres unmarked) [A, 5-{4-[2-(methylpyridin-2-ylamino)ethoxy]benzyl}thiazolidine-2,4-dione]: the CYP2B15 relative induction amounted to 1 in the data set on CYP2B15 [1] (0 hours); 1.56 in the data set on CYP2B15 [1] (8 hours); 0.68 in the data set with CYP2B15 [1] (24 hours); 0.29 with CYP2B15 [1] (48 hours); 0.08 in the data set on CYP2B15 [1] (96 hours). Moreover, the GPD1 relative induction is 1 in the data set with GPD1 [2] (0 hours); 18.52 in the data set on GPD1 [2] (8 hours); 12.53 in the data set on GPD1 [2] (24 hours); 6.93 with GPD1 [2] (48 hours); 3.42 in the data set with GPD1 [2] (96 hours).

For the compound `CCCCCCCNC(=O)N(C)c1cccc(-c2ccc(C[C@H](OCC)C(=O)O)cc2)n1` [C, (S)-2-ethoxy-3-{4-[6-(3-heptyl-1-methylureido)pyridin-2-yl]phenyl}propionic acid], the CYP2B15 relative induction is 1 in the data set on CYP2B15 [1] (0 hours); 0.61 with CYP2B15 [1] (8 hours); 0.18 in the data set with CYP2B15 [1] (24 hours); 0.11 in the data set on CYP2B15 [1] (48 hours); 0.04 with CYP2B15 [1] (96 hours). Besides, the GPD1 relative induction in the data set on GPD1 [2] (0 hours) turned out to be 1; in the data set with GPD1 [2] (8 hours) it was 7.59; in the data set with GPD1 [2] (24 hours) it was 11.56; in the data set on GPD1 [2] (48 hours) it was 7.50; with GPD1 [2] (96 hours) it was 3.44.

For the compound `CN(CCOc1ccc(CC2SC(=O)NC2=O)cc1)c1ccccn1` (centres unmarked) [Rosiglitazone], the “Expression after treatment with 1% Rosiglitazone” value with GPD1 [3] is 243 arbitrary expression units; in the data set on CYP2B15 [4] (CYP2B15 mRNA (1387722_at), female FUZZY rats, once a day for 8 days, control condition 120) it was 35 arbitrary expression units. Further, the “Significance of the expression after treatment with 1% Rosiglitazone” value in the data set with CYP2B15 [4] (CYP2B15 transcript presence indicator, 8 days) is reported as 1.
